Measured values taken from ChEMBL document CHEMBL5303304, “EUbOPEN Chemogenomics Library - IncuCyte” (2023).

Assays:
Format in all cases: toxicity, cell-based
U2OS = assay: Incucyte cell viability with U2OS; conditions: human, 10 µM, compound concentration 10 uM
Fibroblast = assay: Incucyte cell viability with human fibroblast; conditions: 10 µM, compound concentration 10 uM
HEK-293T = assay: Incucyte cell viability with HEK293T; conditions: human, 10 µM, compound concentration 10 uM
Further: unitless GR value; below 1 slowed growth and below 0 cell loss.

Row | Structure (SMILES) | Growth Rate (U2OS; 0 h, replicate number 1) | Growth Rate (U2OS; 6 h, replicate number 1) | Growth Rate (U2OS; 12 h, replicate number 1) | Growth Rate (U2OS; 18 h, replicate number 1) | Growth Rate (U2OS; 24 h, replicate number 1) | Growth Rate (Fibroblast; 6 h, replicate number 2) | Growth Rate (Fibroblast; 12 h, replicate number 1) | Growth Rate (Fibroblast; 12 h, replicate number 2) | Growth Rate (Fibroblast; 18 h, replicate number 1) | Growth Rate (Fibroblast; 18 h, replicate number 2) | Growth Rate (Fibroblast; 24 h, replicate number 2) | Growth Rate (HEK-293T; 0 h, replicate number 1) | Growth Rate (HEK-293T; 24 h, replicate number 2) | Growth Rate (U2OS; 24 h, replicate number 2) | Growth Rate (Fibroblast; 0 h, replicate number 2) | Growth Rate (HEK-293T; 0 h, replicate number 2) | Growth Rate (HEK-293T; 6 h, replicate number 2) | Growth Rate (HEK-293T; 12 h, replicate number 2) | Growth Rate (HEK-293T; 18 h, replicate number 2) | Growth Rate (Fibroblast; 24 h, replicate number 1) | further results
1 | O=C(O)c1cc(-c2ccccc2)ccc1O | -0.47 | 0.63 | 0.69 | 0.88 | 0.87 | -0.01 | 0.95 | 0.44 | 0.96 | 0.67 | 0.79 | -0.37 | 0.94 |  |  |  |  |  |  |  | Growth Rate (U2OS; 0 h, replicate number 2): -0.88
2 | CC(C=CC1=C(C)CCCC1(C)C)=CC=CC(C)=CC(=O)O | 0.58 | 0.77 | 0.3 | 0.67 | 0.87 | 0.99 |  | 0.99 |  |  |  | 0.11 | 0.58 | 0.99 | 0.82 | -0.77 | 0.82 | 0.99 | 0.73 |  | Growth Rate (U2OS; 0 h, replicate number 2): 0.8; Growth Rate (U2OS; 6 h, replicate number 2): 0.93; Growth Rate (HEK-293T; 18 h, replicate number 1): 0.94; Growth Rate (HEK-293T; 24 h, replicate number 1): 0.95
3 | CCOC(=O)Nc1ccc2c(c1)N(C(=O)CN(CC)CC)c1ccccc1CC2 | 0.1 | 0.94 | 0.75 |  | 0.89 | 0.43 | 0.64 | 0.75 | 0.61 | 0.53 | 0.69 | 0.65 | 0.92 |  | 0.9 |  | 0.81 | 0.9 | 0.97 | 0.76 | Growth Rate (Fibroblast; 6 h, replicate number 1): 0.29
4 | C[C@H](CCC(=O)[O-])[C@H]1CC[C@H]2[C@@H]3[C@@H](O)C[C@@H]4C[C@H](O)CC[C@]4(C)[C@H]3CC[C@]12C.[Na+] | -0.51 | 0.4 | 0.47 | 0.72 |  | 0.93 |  | 0.91 | 0.83 | 0.77 | 0.88 | 0.59 | 1 |  | 0.84 |  |  |  |  |  | Growth Rate (U2OS; 0 h, replicate number 2): 0.8; Growth Rate (U2OS; 12 h, replicate number 2): 1; Growth Rate (Fibroblast; 6 h, replicate number 1): 0.88
5 | COc1cc(O)c(C(CC(=O)N2C[C@H](C)C[C@H](C)C2)c2ccc3c(c2)OCO3)c(OC)c1 (stereo partly specified) | 0.96 |  |  |  |  | 1 | 0.5 |  | 0.1 | 0.88 |  | 0.81 |  |  | 0.14 | -0.14 |  |  |  | 0.74 | Growth Rate (U2OS; 0 h, replicate number 2): 0.9; Growth Rate (Fibroblast; 6 h, replicate number 1): -0.32
6 | CC(=O)Nc1nc(C)c(S(=O)(=O)Nc2ccc(C(O)(C(F)(F)F)C(F)(F)F)cc2)s1 | -0.47 | 0.76 | 0.61 | 0.74 | 0.79 | 0.51 | 0.45 | 0.84 | 1 | 0.9 |  | 0.65 | 0.78 |  | 0.65 |  |  | 0.89 | 0.85 |  | Growth Rate (HEK-293T; 6 h, replicate number 1): 0.85; Growth Rate (HEK-293T; 12 h, replicate number 1): 0.86
7 | C[C@@H](CO)CCC[C@@H](C)[C@H]1CC[C@H]2[C@@H]3CC=C4C[C@@H](O)CC[C@]4(C)[C@H]3CC[C@]12C |  |  | 0.84 | 0.88 |  | 0.36 | 0.57 | 0.22 | 0.33 | 0.27 | 0.25 | 0.34 | 1 |  |  |  |  | 0.79 |  | 0.6 | Growth Rate (U2OS; 6 h, replicate number 2): 0.82; Growth Rate (Fibroblast; 0 h, replicate number 1): 0.73; Growth Rate (Fibroblast; 6 h, replicate number 1): 0.92
8 | CCOC(=O)c1ccc(CN(Cc2ccc(-c3cccc(S(C)(=O)=O)c3)cc2)S(=O)(=O)c2c(C)cc(C)cc2C)o1 |  |  |  |  |  | 0.38 | 0.59 | 0.87 | 0.86 | 0.84 | 0.87 | -0.26 |  | 0.89 |  |  |  | 0.98 |  | 0.99 | Growth Rate (Fibroblast; 0 h, replicate number 1): 0.32
9 | O=C(Cc1ccccc1[N+](=O)[O-])Nc1ccc(-c2ccc(C(O)(C(F)(F)F)C(F)(F)F)cc2F)cc1 |  |  |  |  |  | -0.05 | 0.45 | 0.28 | 0.13 | -0.04 | -0.14 | 0.09 | 0.74 | 0.66 |  | -0.97 | 0.13 | 0.64 | 0.6 | -0.02 | Growth Rate (U2OS; 6 h, replicate number 2): 0.87; Growth Rate (U2OS; 12 h, replicate number 2): 0.85; Growth Rate (U2OS; 18 h, replicate number 2): 0.73; Growth Rate (Fibroblast; 6 h, replicate number 1): -0.02; Growth Rate (HEK-293T; 6 h, replicate number 1): 0.35; Growth Rate (HEK-293T; 12 h, replicate number 1): 0.73; Growth Rate (HEK-293T; 18 h, replicate number 1): 0.7; Growth Rate (HEK-293T; 24 h, replicate number 1): 0.78
10 | CCc1ccc(-c2ncn(CC3(F)CCN(C)CC3)c2-c2ccnc3[nH]ccc23)nc1 | 0.47 | 0.66 | 0.71 | 0.85 | 0.87 | 0.83 |  |  | 0.78 | 0.97 |  | -0.12 | 0.69 | 0.75 | 0.42 | 0.98 | 0.08 | 0.35 | 0.72 | 0.93 | Growth Rate (U2OS; 12 h, replicate number 2): 0.69; Growth Rate (U2OS; 18 h, replicate number 2): 0.83; Growth Rate (Fibroblast; 0 h, replicate number 1): 0.78; Growth Rate (HEK-293T; 6 h, replicate number 1): 0; Growth Rate (HEK-293T; 12 h, replicate number 1): 0.43; Growth Rate (HEK-293T; 18 h, replicate number 1): 0.76; Growth Rate (HEK-293T; 24 h, replicate number 1): 0.9
11 | CN(C)[C@H]1C[C@H](n2cnc(-c3ccc(F)cn3)c2-c2ccnc3[nH]ccc23)C1 | 0.83 |  |  |  |  |  | 0.89 |  | 0.84 |  |  | 0.9 |  | 0.85 | 0.15 | -0.95 | 0.95 |  |  |  | Growth Rate (U2OS; 6 h, replicate number 2): 0.94; Growth Rate (U2OS; 12 h, replicate number 2): 0.81; Growth Rate (U2OS; 18 h, replicate number 2): 0.94
12 | Cn1ccc(Cn2cnc(-c3ccc(F)cc3)c2-c2ccnc3[nH]ccc23)n1 | 0.48 | 0.89 | 0.89 |  |  |  |  |  |  |  |  | -0.47 | 0.89 | 0.89 | 0.53 | 0.06 |  | 0.86 | 0.98 |  | Growth Rate (U2OS; 6 h, replicate number 2): 0.97; Growth Rate (U2OS; 12 h, replicate number 2): 0.94; Growth Rate (U2OS; 18 h, replicate number 2): 0.95; Growth Rate (Fibroblast; 0 h, replicate number 1): 0.19
13 | CN1CCC(F)(Cn2cnc(-c3ccc(F)cn3)c2-c2ccnc3[nH]ccc23)CC1 | 0.97 | 0.99 | 0.8 | -0.61 | 0.84 | 0.29 | 0.6 | 0.78 | 0.66 | 0.68 | 0.8 | 0.3 | 0.74 | 0.68 |  | -0.77 | 0.85 | 0.86 |  | 0.81 | Growth Rate (U2OS; 6 h, replicate number 2): 0.77; Growth Rate (U2OS; 12 h, replicate number 2): 0.87; Growth Rate (U2OS; 18 h, replicate number 2): 0.94; Growth Rate (Fibroblast; 6 h, replicate number 1): -0.23; Growth Rate (HEK-293T; 6 h, replicate number 1): 0.99; Growth Rate (HEK-293T; 18 h, replicate number 1): 0.93; Growth Rate (HEK-293T; 24 h, replicate number 1): 0.9
14 | CCO[C@H](COc1ccc(C(F)(F)F)cc1)CSc1ccc(OCC(=O)[O-])c(C)c1.[Na+] |  |  | 0.94 | 0.96 |  |  | 0.7 | 0.87 | 0.93 | 0.97 |  | -0.25 | 0.68 | 0.78 | 0.62 | -0.95 | 0.55 | 0.82 | 0.72 | 0.93 | Growth Rate (U2OS; 0 h, replicate number 2): 0.56; Growth Rate (U2OS; 6 h, replicate number 2): 0.78; Growth Rate (U2OS; 12 h, replicate number 2): 0.8; Growth Rate (U2OS; 18 h, replicate number 2): 0.92; Growth Rate (Fibroblast; 6 h, replicate number 1): 0.27
15 | O=C(NCCS(=O)(=O)c1ccc(C(F)(F)F)cn1)c1ccc(Cl)cc1 |  |  | 0.98 | 0.96 | 0.93 |  | 0.61 | 0.53 | 0.55 | 0.99 | 0.73 | -0.16 | 0.79 |  | -0.73 |  | 0.83 | 0.73 | 0.77 | 0.9 | 
